Results as given in patent publication US4283538A, “Novel triarylmethane compounds” (Polaroid Corporation, priority 1979, dated 1981).

Columns and labels:
Type in all cases: physicochemical
[1] = Decolorization of methanol solution added to aqueous 1 N KOH
[2] = Transmission densities (R, G, B) of image-receiving components containing the dye before and after bleaching with aqueous 1 N KOH; conditions: for Transmission Density After Bleaching, B / Transmission Density Before Bleaching, B: blue; for Transmission Density After Bleaching, G / Transmission Density Before Bleaching, G: green; for Transmission Density After Bleaching, R / Transmission Density Before Bleaching, R: red
From the text: Using appropriate solvents, samples of the dye compounds prepared in Examples 12, 13, 24 and 26 were incorporated into the image-receiving layer 3 of four image-receiving components comprising the structure set forth below by mixing the solution of each compound with a solution of the graft copolymer and coating this mixture on top of the timing layer to complete each of the image-receiving components.
A transparent 4 mil polyethylene terephthalate film base coated with, in succession:
1. as a polymeric acid layer, a mixture of about 9 parts of a partial butyl ester of polyethylene/maleic anhydride copolymer and 1 part of polyvinyl butyral coated at a coverage of about 2,500 mgs./ft.^2 ;
2. a timing layer containing a 14:1 ratio of a 60-30-4-6 tetrapolymer of butylacrylate, diacetone acrylamide, styrene and methacrylic acid and polyvinyl alcohol at a coverage of 500 mgs./ft.^2 ;
3. a graft copolymer of 4-vinylpyridine and vinylbenzyltrimethylammoniumchloride grafted on hydroxyethyl cellulose in a weight ratio of 2.2/1/2.2, respectively, coated at a coverage of 300 mgs./ft.^2 to provide an imagereceiving layer and containing the selected dye compound at a coverage of 22 mgs./ft.^2.
Each of the image-receiving components containing the respective dye compounds were placed on a piece of gelatin coated Mylar, and the transmission densities for red (R), green (G) and blue (B) were recorded on a transmission densitometer. Then several drops of aqueous 1 N KOH were added to each gelatin sheet, and the image-receiving components were lightly pressed against the gelatin sheets to "bleach" the dye compounds. […]

[3] = Bleaching rate (T1/2) in pH=12 aqueous buffer, visible spectrometer; conditions: selected wavelength for optical density recording, pH=12 buffer
Procedure: Also, the "bleaching" rates for the compounds of Examples 21, 23 and 24 were determined at pH=12 in terms of T1/2. By T1/2 is meant the time measured for one-half of the colored compound to decolorize. In making these determinations, a cell containing about 3 ml of pH=12 buffer (aqueous) was placed in a visible spectrometer. A sample of each compound was dissolved in methanol, and a small amount (less than 0.1 cc) of each solution was injected into the buffer. The optical densities were then recorded at a selected wavelenth value to determine T1/2.

[4] = Persistence of colorlessness on acidification to pH 1 after decolorization in aqueous 1 N sodium hydroxide; conditions: methanol solution decolorized with aqueous 1 N NaOH, then aqueous HCl to pH 1
From the text: As discussed above and also in the aforementioned application, the subject compounds have the ability to decolorize completely and irreversibly in base by undergoing an irreversible cleavage reaction within a predetermined time at a predetermined pH to give a new colorless compound which remains colorless at the pH's normally encountered during processing subsequent to "bleaching" so that the new compound may be retained in a photographic film unit, e.g., a photosensitive element without the possibility of color reappearing in time. In this regard, samples of the compounds prepared in Examples 24 and 26 above were dissolved in a small amount of methanol, and aqueous 1 N sodium hydroxide was added to each solution to decolorize the compound.

[5] = 15 to 60 seconds after aqueous 1 N KOH
[6] = dye 22 mgs./ft.^2 in image-receiving layer
[7] = dye 22 mgs./ft.^2 in image-receiving layer, densitometer set at 0.00 with two gelatin coated mylar
[8] = coating stored for over 3 months
[9] = coating stored for over 3 months, bleaching time about 3 minutes, aqueous 1 N KOH

| Transmission Density After Bleaching, B [2, 5] | Transmission Density Before Bleaching, B [2, 6] | Transmission Density After Bleaching, G [2, 5] | Transmission Density Before Bleaching, G [2, 6] | Transmission Density After Bleaching, R [2, 5] | Transmission Density Before Bleaching, R [2, 7] | Wavelength (λmax-nm) [3] [nm] | SMILES | also measured |
| --- | --- | --- | --- | --- | --- | --- | --- | --- |
|  |  |  |  |  |  |  | CC(=O)N(C)S(=O)(=O)c1ccccc1C(=C1C=C(C(O)(C(F)(F)F)C(F)(F)F)C(=O)c2ccccc21)c1cc2c3c(c1)CCCN3CCC2 [Example 9] | time to decolorize [1]: approximately 5 seconds |
| .00 | .45 | .01 | .31 | .02 | .00 |  | COC1=CC(=C(c2ccc(N3CCOCC3)cc2)c2ccccc2S(=O)(=O)N(C)C(=O)OCCS(C)(=O)=O)C=C(OC)C1=O [Example 12] |  |
| .00 | .09 | .01 | .32 | .01 | .21 |  | COC1=CC(=C(c2cc3c4c(c2)CCCN4CCC3)c2ccccc2S(=O)(=O)N(C)C(=O)OCCS(C)(=O)=O)C=C(OC)C1=O [Example 13] |  |
|  |  |  |  |  |  | 640 | COC1=CC(=C(c2cc(OC)c(O)c(OC)c2)c2ccccc2S(=O)(=O)N(C)C(=O)OCCS(C)(=O)=O)C=C(OC)C1=O [Example 21] |  |
|  |  |  |  |  |  | 640 | COC1=CC(=C(c2cc(OC)c(O)c(OC)c2)c2ccccc2S(=O)(=O)N(C)C(C)=O)C=C(OC)C1=O [Example 23] |  |
| .00 | .40 | .00 | .00 | .01 | .00 | 590 | CC1=CC(=C(c2cc(C)c(O)c(C)c2)c2ccccc2S(=O)(=O)N(C)C(=O)OCCS(C)(=O)=O)C=C(C)C1=O [Example 24] | color after decolorization and acidification to pH 1 [4]: remained colorless even at pH 1 |
|  |  |  |  |  |  |  | CN(C(=O)OCCS(C)(=O)=O)S(=O)(=O)c1ccccc1C(=C1C=C(C(O)(C(F)(F)F)C(F)(F)F)C(=O)c2ccccc21)c1cc2c3c(c1)CCCN3CCC2 [Example 26] | color after decolorization and acidification to pH 1 [4]: remained colorless even at pH 1; time to decolorize (in words) [1]: substantially instantaneously; Transmission Density Before Bleaching, B [2, 8]: .05; Transmission Density After Bleaching, B [2, 9]: .02; Transmission Density Before Bleaching, G [2, 8]: .06; Transmission Density After Bleaching, G [2, 9]: .00; Transmission Density Before Bleaching, R [2, 8]: .19; Transmission Density After Bleaching, R [2, 9]: .02 |
